Like-named read-outs stand apart in the source and are kept apart here.
Experiments:
Assay type in all cases: cell-based, human
[1] = test system: pERK, Lovo cells; assay: Phospho-ERK inhibition, AlphaLISA p-ERK 1/2, Lovo; conditions: Table D-2; for IC50: Lovo (KRAS-G13D); for pERK value in parentheses, % inhibition (Ymin): Lovo, lowest point of IC50 curve
Protocol: (§1) All cancer cell lines (A375, A101D, A2058, RKO, HT29 SK-MEL 30, IPC298, HepG2, HCT-116, Lovo, SW620, SW480, NCI-H358, NCI-H2122, Calu-6, NCIH2087, NCIH1755, NCIH1666 and Mewo) were obtained from ATCC and cultured in RPM1-1640 medium (Gibco) supplemented with 5% heat inactivated fetal bovine serum (FBS, Wisent) at 37° C. under 5% CO2. Cells were maintained in T175 flasks (Greiner). They were passaged by removing the culture medium, washing once in 10 mL of room temperature Phosphate Buffered Saline (PBS; Wisent) and incubating at 37° C. with 2 mL of 0.05% Trypsin (Thermo-Fisher). Trypsin was then inactivated by adding complete growth medium and the cells were then replated in a T175 culture dish at the appropriate dilution. All cell lines were routinely tested for mycoplasma contamination. Tissue type and mutational status of each cell line can be found in Table B.
(§2) (c) Measurement of Phospho-ERK Inhibition in Cultivated Human Cancer Cell Lines by the AlphaLISA® SureFire® Ultra™ p-ERK 1/2 (Thr2O2/Tyr204)
(§3) AlphaLISA® SureFire® Ultra™ p-ERK 1/2 (Thr202/Tyr204) analysis was conducted on cells plated in 100 μL of complete RPMI-1640 growth medium in 96-well flat-bottomed transparent dishes (Costar) at a density indicated in Table C. Cells were maintained overnight at 37° C. under 5% CO2 before treatment with compounds' dilution series for one hour. The cell density in cells/cm^2 corresponds to cell number divided by the area of one well of a 96-well plate (0.143 cm^2).
(§4) In a dilution series 100 μL/well of test substance dilution prepared in complete RPMI-1640 growth media was added to the cells. The dilution series is selected so that ten concentrations cover a range from 10 μM to 0.33 nM. If necessary, the initial concentration of 10 μM is increased to 100 μM or lowered to 1 μM (as in the case of A375 and H1666 cells, which are generally more sensitive to the compounds) and further dilution is carried out accordingly. The final concentration of DMSO in the assay is set at 0.5%.
(§5) After treatment, media was removed, and cells were lysed in 50 μL of 1× AlphaScreen Ultra Lysis Buffer (Perkin Elmer). The AlphaLISA® SureFire® Ultra™ p-ERK 1/2 (Thr202/Tyr204) (PerkinElmer) reactions were performed with 5 μL of cell lysate according to the manufacturer's specifications in 384-well proxyplates (Perkin Elmer) followed by overnight incubation of the reactions at room temperature in a humidified chamber. After completion of the reactions, the signals were recorded on an EnVision plate reader (Perkin Elmer) using built in AlphaLISA® settings.
(§6) The effect of each compound dilution on the pERK signal was expressed in % inhibition and calculated as follows. An internal 100% inhibition control (1 μM trametinib, cat. No. HY-10999; MedChem Express; CAS No. 871700-17-3) was included in each plate and used as a measure of pERK background. First, the value obtained for trametinib was subtracted from each data point. The average of DMSO (vehicle) controls (set as 0% inhibition) was established and used to calculate % inhibition:
(§7) The ability of each compound to inhibit pERK signal was expressed as an IC50 value obtained by plotting the inhibition values for each data point of a dilution series and fitting the obtained curves using a log(agonist) versus response—variable slope (four parameters) function using GraphPadPrism (V7.0) or Dotmatics Screening Ultra platform.
(§8) When present, paradoxical pERK induction is inferred from the negative % inhibition values observed in the pERK IC50 curves of a compound.

[2] = test system: pERK, NCI-H2122 cells; assay: Phospho-ERK inhibition, AlphaLISA p-ERK 1/2, NCI-H2122; conditions: Table D-2; for IC50: NCI-H2122 (KRAS-G12C); for pERK value in parentheses, % inhibition (Ymin): NCI-H2122, lowest point of IC50 curve
Protocol: as §1, §2, §3, §4, §5, §6, §7, §8

[3] = test system: HCT116 cells; assay: Proliferation inhibition, CellTiter-Glo, HCT116; conditions: Table D-1, HCT116 (KRAS G13D), 3 days, read-out: Prolif. (proliferation EC50)
Protocol: as §1
(§9) CellTiter-Glo® viability analysis was conducted on cells plated in 100 μL of complete RPMI-1640 growth medium in 96-well flat-bottomed white opaque plates (Greiner or Croning) at a density indicated in Table E (for each CCL, number of cells plated per well of a 96-well plate to perform the CellTiter-Glo® cell viability assay). The cell density in cells/cm^2 would correspond to cell number divided by the area of one well of a 96-well plate (0.32 cm^2). […]
(§10) After 3 days of incubation, the growth media were removed by aspiration and 60 μL of diluted CellTiter-Glo® reagent (10 μL CellTiter-Glo® reagent+50 μL of PBS) was added to each well. […] Luminescence signals were then acquired on a Synergy Neo2 plate reader (Biotek).
(§11) The effect of each compound dilution on the proliferation of cancer cell lines was expressed in % inhibition and calculated as follows. […]
as §7, with “proliferation” for “pERK signal”, “a EC50” for “an IC50”, “effect” for “inhibition”

[4] = test system: NCIH2087 cells; assay: Proliferation inhibition, CellTiter-Glo, NCIH2087; conditions: Table D-2, NCIH2087 (BRAF L597V; KRAS Q61K), 3 days, read-out: Prolif. (proliferation EC50)
Protocol: as §1, §9, §10, §11
as §7, with “proliferation” for “pERK signal”, “a EC50” for “an IC50”, “effect” for “inhibition”

[5] = test system: NCIH1755 cells; assay: Proliferation inhibition, CellTiter-Glo, NCIH1755; conditions: Table D-2, NCIH1755 (BRAF G469A), 3 days, read-out: Prolif. (proliferation EC50)
Protocol: as §1, §9, §10, §11
as §7, with “proliferation” for “pERK signal”, “a EC50” for “an IC50”, “effect” for “inhibition”

Cc1ccc2c(Nc3cccc(Cl)c3F)nccc2c1NC(=O)c1csc2c(N)ncnc12 [Belvarafenib, reference compound]
IC50 ([1]; Homo sapiens): < 0.03 µM
pERK value in parentheses, % inhibition (Ymin) [1]: (−12) %
IC50 ([2]; Homo sapiens): 0.03 to 0.3 µM
pERK value in parentheses, % inhibition (Ymin) [2]: (−9) %
EC50 ([3]; Homo sapiens, HCT-116, 72 h): 0.3 to 3 µM
EC50 ([4]; Homo sapiens, NCI-H2087, 72 h): < 0.3 µM
EC50 ([5]; Homo sapiens, NCI-H1755, 72 h): > 3 µM

N#CC1(c2cccc3c2ncn3-c2nc3c(Nc4c(F)ccc(NS(=O)(=O)c5cccc(Cl)c5Cl)c4F)ncnc3s2)CC1 [Example 122]
IC50 [1]: 0.03 to 0.3 µM
pERK value in parentheses, % inhibition (Ymin) [1]: (13) %
IC50 [2]: 0.03 to 0.3 µM
pERK value in parentheses, % inhibition (Ymin) [2]: (27) %
EC50 [3]: < 0.3 µM
EC50 [4]: < 0.3 µM
EC50 [5]: < 0.3 µM

Cc1c(F)cccc1S(=O)(=O)Nc1ccc(F)c(Nc2ncnc3sc(-n4cc(C(=O)N5C6CCC5CN(C)C6)c5ccccc54)nc23)c1F [Example 44]
IC50 [1]: 0.03 to 0.3 µM
pERK value in parentheses, % inhibition (Ymin) [1]: (−10) %
IC50 [2]: 0.03 to 0.3 µM
pERK value in parentheses, % inhibition (Ymin) [2]: (−11) %
EC50 [3]: < 0.3 µM
EC50 [4]: < 0.3 µM
EC50 [5]: < 0.3 µM
